Experimental data: EP1538162B1, “Compositions for altering mucus secretion” (NORTH CAROLINA STATE UNIVERSITY, priority 1999, dated 2000)

Tests used:
MARCKS = experiment: Phosphorylation state of MARCKS in airway epithelial cells; assay type: cell-based, human
Method: To detect MARCKS protein in these cells, cells were labeled with ^3H-myristic acid (as MARCKS is myristoylated) for 16 hours in media. Cells were lysed, and MARCKS protein was immunoprecipitated according to the method of Spizz & Blackshear (J Biol Chem 271:553, 1996) using monoclonal antibody 2F12 (a gift from the Blackshear laboratory).
(§1) Phosphorylation of MARCKS by PMA was attenuated by Calphostin C (500 nM). NHBE cells also contained substantial amounts of cGMP-dependent protein kinase type 1α (PKG-1α) activity, which was localized to the cytosolic fraction. […] In addition, the phosphorylation of MARCKS induced by PMA was reversed by incubation with 8-Br-cGMP (10 µM).

[1] = tested on: normal human bronchial epithelial (NHBE) cells; experiment: UTP-induced mucin secretion, air-liquid interface culture, mucus ELISA; assay type: cell-based; details: for mucin secretion in cells stimulated by secretagogues: general statement, Example 9: 15 min pre-incubation, UTP 0.1 mM 2 hours, 500 nM calphostin C, 10 µM Rp-8-Br-PET-cGMP, 50 µM LY83583
Method: (§2) Cell Culture System: Expansion and cryopreservation. Primary normal human bronchial epithelial (NHBE) cells (Clonetics, San Diego, CA) were seeded into vented T75 tissue culture flasks (500 cells/cm^2) in bronchial epithelial basal medium (BEBM; Clonetics, San Diego, CA) containing 25 ng/ml human recombinant epidermal growth factor (EGF; Intergen, Purchase, NY), 65 ng/ml bovine pituitary extract (prepared by the methods of Bertolero et al. Exp Cell Res 155:64, 1984), 5 x 10^-8M all-trans retinoic acid, 1.5µg/ml bovine serum albumin (Intergen, Purchase, NY), 20 IU/ml nystatin (Gibco, Grand Island, NY), 0.5µg/ml hydrocortisone, 5µg/ml insulin, 10µg/ml transferrin, 0.5µg/ml epinephrine, 6.5ng/ml triiodothyronine, 50µg/ml gentamicin, and 50µg/ml amphotericin-B (Clonetics; San Diego, CA). Once confluent, cultures were dissociated with trypsin/EDTA and frozen as passage-2 according to the methods of Clonetics Corporation.
Air-liquid interface culture of NHBE cells. Following the expansion, NHBE cells were cultured in air/liquid interface according to the methods of Gray and coworkers with minor modifications (Gray et al. Am J Respir Cell Mol Biol 14:104, 1996). The air-liquid interface culture was initiated by seeding NHBE cells (passage-2, 2x10^4 cells/cm^2) on Transwell-clear culture inserts (24.5 mm, 0.45 µm pore size; Costar, Cambridge, MA) that were thin coated with rat tail collagen, type I (Collaborative Research, Bedford, MA). Cells were cultured submerged to 70% confluency (5-7 days) in a 1:1 mixture of bronchial epithelial cell growth medium (Clonetics, San Diego, CA):Dulbecco's modified Eagles medium with high glucose (BEGM:DMEM-H), containing the same supplements as described above with the exception of EGF (0.5 ng/ml). When cultures were 70% confluent, the air-liquid interface was created by removing the apical medium, and the basal medium (BEGM:DMEM-H) was changed daily thereafter. Cells were then cultured for an additional 14 days in air-liquid interface, a total of 21 days in culture.
(§3) Mucus ELISA: Mucus secreted from the airway epithelial cells in vitro after stimulation by activators was assessed using an ELISA (antibody capture method) (E. Harlow, D. Lane. "Antibodies: A Laboratory Manual." New York: Cold Spring Harbor Laboratory Press, 1988), wherein the collected mucus is bound directly to the ELISA plate. Mucus was detected using an antibody raised against monkey airway mucus (Lin et al. Am J Respir Cell Mol Biol 1:41, 1989). […]
NHBE cells were pre-incubated with the indicated inhibitor for 15 min, then stimulated with UTP (0.1mM) for 2 hours. Secreted mucin in the apical medium was collected and assayed by ELISA.

[2] = tested on: normal human bronchial epithelial (NHBE) cells; experiment: Mucin secretion stimulated by PMA + 8-Br-cGMP, air-liquid interface culture, mucus ELISA; assay type: cell-based; details: 500nM, pre-incubated 15 min; PMA (100 nM) + 8-Br-cGMP (1µM) for 15 min
Method: as §2, with “Corporation. […]” for “Corporation.”
as §3

[3] = target: T1, cGMP-dependent protein kinase type 1α (PKG-1α) (Homo sapiens, UniProt Q13976); experiment: PKG activity in NHBE cells; assay type: cell-based; details: 100 µM
T1 construct: NHBE cells also contained substantial amounts of cGMP-dependent protein kinase type 1α (PKG-1α) activity; endogenous in cells; host or cells: primary normal human bronchial epithelial (NHBE) cells, Clonetics
T1 sequence (Q13976 1-671): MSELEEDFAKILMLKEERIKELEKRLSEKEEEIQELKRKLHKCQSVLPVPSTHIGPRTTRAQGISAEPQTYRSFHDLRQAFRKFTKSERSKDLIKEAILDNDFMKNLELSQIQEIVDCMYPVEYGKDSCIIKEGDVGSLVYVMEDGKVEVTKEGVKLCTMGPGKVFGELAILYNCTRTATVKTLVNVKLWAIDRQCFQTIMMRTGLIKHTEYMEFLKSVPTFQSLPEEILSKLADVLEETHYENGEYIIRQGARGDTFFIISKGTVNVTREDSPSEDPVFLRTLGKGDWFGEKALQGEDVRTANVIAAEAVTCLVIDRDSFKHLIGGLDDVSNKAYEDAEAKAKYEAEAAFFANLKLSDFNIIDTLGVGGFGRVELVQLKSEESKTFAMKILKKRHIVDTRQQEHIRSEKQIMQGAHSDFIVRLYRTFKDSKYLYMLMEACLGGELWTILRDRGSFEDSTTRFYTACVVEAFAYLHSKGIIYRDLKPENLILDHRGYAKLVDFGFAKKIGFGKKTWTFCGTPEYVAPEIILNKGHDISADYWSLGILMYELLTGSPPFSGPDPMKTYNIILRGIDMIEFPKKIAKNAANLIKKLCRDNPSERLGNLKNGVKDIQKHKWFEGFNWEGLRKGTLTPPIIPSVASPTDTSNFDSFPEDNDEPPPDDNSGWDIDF
Method: as §1

Nc1nc2c(nc(Br)n2[C@@H]2O[C@@H]3COP(=O)(O)O[C@H]3[C@H]2O)c(=O)[nH]1 [8-Br-cGMP, 8-bromo-cGMP]
phosphorylation of MARCKS induced by PMA (MARCKS; 10 µM): reversed

O=C1C(Nc2ccccc2)=CC(=O)c2ncccc21 [LY83585]
mucin secretion in cells stimulated by secretagogues [1]: inhibit mucin secretion

CCCCCCCCCCCCCC(=O)O[C@@H]1[C@@H](C)[C@@]2(O)[C@@H](C=C(CO)C[C@]3(O)C(=O)C(C)=C[C@@H]23)[C@@H]2C(C)(C)[C@]12OC(C)=O [PMA, phorbol 12-myristate 13-acetate]
phosphorylation of MARCKS (MARCKS; PMA 100 nM, concentration of 4α-PMA not given): phosphorylated

O=c1c2nc(Br)n(C3OC4COP(=O)(S)OC4C3O)c2nc2[nH]c(-c3ccccc3)cn12 (centres unmarked) [Rp-8-Br-PET-cGMP]
mucin secretion in cells stimulated by secretagogues [1]: inhibit mucin secretion

C=C1[C@@H](O)[C@@H]2O[C@]3(CC[C@H](/C=C/[C@@H](C)[C@@H]4CC(C)=C[C@@]5(O[C@H](C[C@@](C)(O)C(=O)O)CC[C@H]5O)O4)O3)CC[C@H]2O[C@@H]1[C@@H](O)C[C@H](C)[C@H]1O[C@@]2(CCCCO2)CC[C@H]1C [okadaic acid]
reversal by 8-Br-cGMP of PMA-induced phosphorylation of MARCKS (MARCKS; 500 nM): inhibited this effect
mucin hypersecretion induced by PMA + 8-Br-cGMP [2]: blocks mucin hypersecretion
mucin hypersecretion induced by UTP ([1]; 500nM, pre-incubated 15 min, UTP (0.1 mM) for 2 hours): blocks mucin hypersecretion
mucin secretion in cells stimulated by secretagogues [1]: inhibit mucin secretion

calphostin C
phosphorylation of MARCKS by PMA (MARCKS; 500 nM): attenuated
mucin secretion in cells stimulated by secretagogues [1]: inhibit mucin secretion

dibutyryl cGMP
constitutive PKG activity [3]: increased
